Measurements reported in patent publication US5281580A, “Calcitonin-containing emulsion for nasal administration” (Toyo Jozo Company, Ltd., priority 1990, dated 1994).
Each block holds one compound with its values, some of them ahead of it.

Tests used:
Type in all cases: physicochemical
[1] = Stabilities of emulsions relating to added concentration of the azacycloalkane derivative (Example 2); settings: for Observation after 3 days standing / Observation after 7 days standing: room temperature
Description: Each 5 ml of a 1% (W/V) solution preliminarily prepared by dissolving dispotassium glycyrrhizate in distilled water was poured in each of 8 10-ml-test tubes, and thereto was added 1[2-(decylthio)ethyl] azacyclopentan-2-one chosen from the azacycloalkane derivatives so as to make a concentration ranging from 0 to 10%. Then, the mixture was agitated for 1 minute using Biomixer (NIHON SEIKI SEISAKUSHO) (15,000 rpm), to prepare each emulsion. The state of dispersion just after the preparation,or after 3 days or 7 days standing at room temperature was observed.

[2] = Turbidity just after preparation by extinction, index of emulsifiability (Example 1)
Description: (§1) […] The mixture was agitated under 15,000 rpm for 1 minute by Biomixer (NIHON SEIKI SEISAKUSHO) to prepare each emulsion. The state of dispersion just after the preparation and after 3 days standing at room temperature was observed. The turbidity just after the preparation was measured by extinction at 650 nm, and used as the index of emulsifiability.

[3] = Emulsifiability and stability of emulsions: state of dispersion observed (Example 1); settings: for Just after preparation (state of dispersion): 0.1 g azacycloalkane derivative + 5.0 ml; for After 3 days standing (state of dispersion): room temperature
Description: Using 1-[2-(decylthio)ethyl]azacyclopentan-2-one chosen from the azacycloalkane derivatives, and three emulsifying agents as follows, emulsifiabilities and stabilities of the emulsions were examined:
as §1

[4] = concentration 1.0% in 1% (W/V) dipotassium glycyrrhizate
[5] = concentration 2.0% in 1% (W/V) dipotassium glycyrrhizate

Observation just after preparation [1, 4]: White clear | Observation after 3 days standing [1, 4]: White clear | Observation after 7 days standing [1, 4]: White clear | Observation just after preparation [1, 5]: White clear | Observation after 3 days standing [1, 5]: White clear | Observation after 7 days standing [1, 5]: White clear
SMILES: CCCCCCCCCCSCCN1CCCC1=O [1-[2-(decylthio)ethyl]azacyclopentan-2-one]
emulsification and stability (in words) ([1]; concentration 0.01% to 10%, using 1% dipotassium glycyrrhizate): exhibited good emulsification and gave a stable emulsion

Turbidity (650 nm) ([2]; emulsifying agent 0.1%): 1.284 | Turbidity (650 nm) ([2]; emulsifying agent 0.5%): 0.459 | Turbidity (650 nm) ([2]; emulsifying agent 1.0%): 0.437 | Turbidity (650 nm) ([2]; emulsifying agent 2.0%): 0.405 | Turbidity (650 nm) ([2]; emulsifying agent 3.0%): 0.346 | Turbidity (650 nm) ([2]; emulsifying agent 4.0%): 0.006 | Turbidity (650 nm) ([2]; emulsifying agent 5.0%): 0.006 | Just after preparation (state of dispersion) ([3]; emulsifying agent 0.5%): White clear | After 3 days standing (state of dispersion) ([3]; emulsifying agent 0.5%): White clear | Just after preparation (state of dispersion) ([3]; emulsifying agent 1.0%): White clear | After 3 days standing (state of dispersion) ([3]; emulsifying agent 1.0%): White clear | Just after preparation (state of dispersion) ([3]; emulsifying agent 2.0%): White clear | After 3 days standing (state of dispersion) ([3]; emulsifying agent 2.0%): White clear | Just after preparation (state of dispersion) ([3]; emulsifying agent 3.0%): White clear | After 3 days standing (state of dispersion) ([3]; emulsifying agent 3.0%): White clear | emulsification (in words) ([3]; emulsifying agent at 0.1-5%): good emulsification | dissolution (in words) ([3]; emulsifying agent at 4-5%): full dissolution
SMILES: CC1(C)[C@@H](O[C@H]2O[C@H](C(=O)[O-])[C@@H](O)[C@H](O)[C@H]2O[C@@H]2O[C@H](C(=O)[O-])[C@@H](O)[C@H](O)[C@H]2O)CC[C@]2(C)[C@H]3C(=O)C=C4[C@@H]5C[C@@](C)(C(=O)O)CC[C@]5(C)CC[C@@]4(C)[C@]3(C)CC[C@@H]12.[K+].[K+] [dipotassium glycyrrhizate]
